Literature values as cited in patent US20210228671A1, “EXTRACT OF VEGETATION WATERS FOR USE IN THE TREATMENT AND/OR IN THE PREVENTION OF PROSTATE CANCER” (FATTORIA LA VIALLA DI GIANNI, ANTONIO E BANDINO LO FRANCO - …, priority 2018, published 2021).

Conditions: high concentrations, up to 250-500 mg/kg/day

OCCc1ccc(O)c(O)c1 [hydroxytyrosol]
toxic effect of in vivo administration: does not exert any toxic effect
